This passage reports Kd results from ChEMBL document CHEMBL1135598, “In silico and NMR identification of inhibitors of the IGF-I and IGF-binding protein-5 interaction” (J Med Chem, 2002).

The structures appear in SMILES notation.

What is called Kd is the concentration at which binding is half-saturated.

Experiment [1] deals with T1, Insulin-like growth factor-binding protein 5 (Homo sapiens, UniProt P24593). Briefly: Dissociation constant binding to Insulin-like growth factor binding protein 5 at the residue L-81.
T1 sequence (P24593 whole entry): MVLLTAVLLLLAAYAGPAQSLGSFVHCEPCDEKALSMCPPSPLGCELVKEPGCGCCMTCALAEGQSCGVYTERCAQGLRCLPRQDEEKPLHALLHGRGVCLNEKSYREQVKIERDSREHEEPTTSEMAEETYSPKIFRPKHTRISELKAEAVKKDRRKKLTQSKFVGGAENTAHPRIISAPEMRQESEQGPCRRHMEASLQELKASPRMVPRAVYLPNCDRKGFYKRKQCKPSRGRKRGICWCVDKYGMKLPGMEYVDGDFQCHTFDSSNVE
Experiment [2] deals with T1, Insulin-like growth factor-binding protein 5. Briefly: Dissociation constant in DMSO binding to Insulin-like growth factor binding protein 5 at the residue Y86.
For experiment [3] the target is unchanged. Kind of experiment: Dissociation constant in PBS binding to Insulin-like growth factor binding protein 5 at the residue K91.
For experiment [4] the target is unchanged. Briefly: Dissociation constant in DMSO binding to Insulin-like growth factor binding protein 5 at the residue K91.
Experiment [5] shares this target. Briefly: Dissociation constant in DMSO binding to Insulin-like growth factor binding protein 5 at the residue S85.
For experiment [6] the target is unchanged. Kind of experiment: Dissociation constant in DMSO binding to Insulin-like growth factor binding protein 5 at the residue L73.
For experiment [7] the target is unchanged. Kind of experiment: Dissociation constant in DMSO binding to Insulin-like growth factor binding protein 5 at the residue L81.
Experiment [8] has the same target. Briefly: Dissociation constant in PBS binding to Insulin-like growth factor binding protein 5 at the residue L81.
Experiment [9] shares this target. Briefly: Dissociation constant in PBS binding to Insulin-like growth factor binding protein 5 at the residue R87.
For experiment [10] the target is unchanged. Briefly: Dissociation constant in PBS binding to Insulin-like growth factor binding protein 5 at the residue Y50.
Experiment [11] shares this target. Kind of experiment: Dissociation constant in PBS binding to Insulin-like growth factor binding protein 5 at the residue Y86.
Experiment [12] shares this target. Kind of experiment: Dissociation constant in DMSO binding to Insulin-like growth factor binding protein 5 at the residue Y50.
For experiment [13] the target is unchanged. Briefly: Dissociation constant in PBS binding to Insulin-like growth factor binding protein 5 at the residue S85.
Experiment [14] shares this target. Kind of experiment: Dissociation constant in DMSO binding to Insulin-like growth factor binding protein 5 at the residue R87.
Experiment [15] shares this target. Briefly: Dissociation constant in PBS binding to Insulin-like growth factor binding protein 5 at the residue L73.
The target is the same in experiment [16]. Briefly: Dissociation constant in binding to Insulin-like growth factor binding protein 5 at the residue Y86.
Experiment [17] has the same target. Briefly: Dissociation constant in binding to Insulin-like growth factor binding protein 5 at the residue R87.
Experiment [18] has the same target. Kind of experiment: Dissociation constant in binding to Insulin-like growth factor binding protein 5 at the residue Y50.
Experiment [19] has the same target. Kind of experiment: Dissociation constant in binding to Insulin-like growth factor binding protein 5 at the residue S85.
Experiment [20] shares this target. Briefly: Dissociation constant in BS binding to Insulin-like growth factor binding protein 5 at the residue K91.
Experiment [21] has the same target. Kind of experiment: Dissociation constant in binding to Insulin-like growth factor binding protein 5 at the residue L73.
For experiment [22] the target is unchanged. Briefly: Dissociation constant in binding to Insulin-like growth factor binding protein 5 at the residue L81.

In [1], `CC(C)(C)Oc1ccc(C[C@@H](NC(=O)OCC2c3ccccc3-c3ccccc32)C(=O)O)cc1` came in with a Kd of 718 µM.

For `O=C(N[C@H](Cc1ccc(OP(=O)(O)O)cc1)C(=O)O)OCC1c2ccccc2-c2ccccc21`, the Kd turned out to be 1900 µM in experiment [2]; 2120 µM in experiment [3]; 2420 µM in experiment [4]; 1380 µM in experiment [5]; 1310 µM in experiment [6]; 2780 µM in experiment [7]. Besides, the Kd in experiment [8] amounted to 2880 µM; in experiment [1] it was 2780 µM; in experiment [9], 2360 µM; in [10], 1820 µM; in [11], 1720 µM; in experiment [12] it was 1580 µM. The equilibrium dissociation constant (Kd) in experiment [13] was found to be 2330 µM; in [14], 1640 µM; in experiment [15] it was 2930 µM.

Compound `O=C(N[C@H](Cc1ccccc1)C(=O)O)OCC1c2ccccc2-c2ccccc21` displayed a Kd in experiment [1] of 1080 µM.

As to `C[S+](C)[O-]` [DIMETHYL SULFOXIDE], the Kd in [16] worked out at 783000 µM; in experiment [17], 921000 µM; in experiment [18], 648000 µM; in [19], 650000 µM; in [20], 719000 µM; in experiment [21], 541000 µM. For the same compound, the Kd in experiment [22] worked out at 610000 µM.
